Data reported in patent US6914045B2, “Glycopeptide antibiotics” (Wyeth Holdings Corporation, priority 2001, dated 2005).
In brackets after ≈: the same amount, converted by molar mass.

Columns and labels:
Escherichia coli = test: in vitro antibacterial evaluation, MIC by broth dilution; type: cell-based; settings: 18 hours at 35° C.
Streptococcus sp. = test: as above; type: cell-based; settings: broth dilution, 18 hours at 35° C.
Outline: (§1)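 Following National Committee for Clinical Laboratory Standards recommendations (M7-A2), susceptibility was measured by dilution in Muller-Hinton II […]. Bacteria were seeded at 5×10^5 CFU/mL against compound concentrations from 64 down to 0.06 μg/mL.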

Enterococcus sp. = test: as above; type: cell-based; settings: broth dilution, 18 hours at 35° C.
Outline: as §1

Staphylococcus sp. = test: as above; type: cell-based; settings: broth dilution, 18 hours at 35° C.
Outline: as §1

[1] = tested on: Staphylococcus aureus-SMITH (GC 4543); test: acute lethal infection in mice; type: in vivo; settings: acute lethal infection, female CD-1 mice, intraperitoneal challenge, intravenous 30 min. after infection, 7 day survival
Outline: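 Female CD-1 mice (20+/−2 gm) were infected intraperitoneally with enough bacteria, suspended in trypticase soy broth or hog gastric mucin, to kill untreated controls within 24-48 hr. Compound in saline or 5% dextrose was given intravenously 30 min post-infection, five mice per dose. ED50 came from pooled 7 day survival of 3 tests.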

CCCOc1ccc(COCC2OC(OC3C(CO)OC(Oc4ccc(CC5NC(=O)C(C(C)c6ccccc6)NC(=O)CNC(=O)C(CO)NC(=O)C(C(O)C6CNC(=N)N6C6OC(CO)C(O)C(O)C6O)NC(=O)C(C(O)C6CNC(=N)N6)NC5=O)cc4)C(O)C3O)C(O)C(O)C2O)cc1 (stereo not drawn) [Example 235, Cyclo[glycyl-β-methylphenylalanyl-O-[4-O-[6-O-(4-propoxybenzyl)hexopyranosyl]hexopyranosyl]tyrosyl-3-(2-iminoimidazolidin-4-yl)seryl-3-(3-hexopyranosyl-2-iminoimidazolidin-4-yl)serylseryl]]
MIC Escherichia coli (GC 4560) (Escherichia coli): 0.5 to 1 µg/mL
MIC Streptococcus agalactiae (GC 4564) (Streptococcus sp.): 0.25 to 0.5 µg/mL
MIC Streptococcus pneumoniae (ATCC 6301) (Streptococcus sp.): 0.12 µg/mL (≈ 0.0831 µM)
MIC Streptococcus pneumoniae (GC 1894) (Streptococcus sp.): <0.06 µg/mL
MIC Streptococcus pneumoniae (GC 4565) (Streptococcus sp.): <0.06 to 0.12 µg/mL
MIC Streptococcus pyogenes (GC 4563) (Streptococcus sp.): 0.25 µg/mL (≈ 0.173 µM)
MIC Streptococcus pneumoniae (ATCC 6301) (Streptococcus sp.; inoculum 5×10^5 CFU/mL, strain ATCC 6301): 0.12 µg/mL (≈ 0.0831 µM)
MIC Streptococcus pneumoniae (GC 1894) (Streptococcus sp.; inoculum 5×10^5 CFU/mL, strain GC 1894): <0.06 µg/mL
MIC Streptococcus pyogenes (GC 4563) (Streptococcus sp.; inoculum 5×10^5 CFU/mL, strain GC 4563): 0.25 µg/mL (≈ 0.173 µM)
MIC Streptococcus agalactiae (GC 4564) (Streptococcus sp.; inoculum 5×10^5 CFU/mL, strain GC 4564): 0.25 to 0.5 µg/mL
MIC Streptococcus pneumoniae (GC 4565) (Streptococcus sp.; inoculum 5×10^5 CFU/mL, strain GC 4565): <0.06 to 0.12 µg/mL
MIC Enterococcus avium (GC 4558) (Enterococcus sp.): 4 µg/mL (≈ 2.77 µM)
MIC Enterococcus faecalis (ATCC 29212) (Enterococcus sp.): 4 µg/mL (≈ 2.77 µM)
MIC Enterococcus faecalis (GC 2242) (Enterococcus sp.): 4 µg/mL (≈ 2.77 µM)
MIC Enterococcus faecalis (GC 2691) (Enterococcus sp.): 4 µg/mL (≈ 2.77 µM)
MIC Enterococcus faecalis (GC 3059) (Enterococcus sp.): 4 to 8 µg/mL
MIC Enterococcus faecalis (GC 4552) (Enterococcus sp.): 4 µg/mL (≈ 2.77 µM)
MIC Enterococcus faecalis (GC 4553) (Enterococcus sp.): 4 µg/mL (≈ 2.77 µM)
MIC Enterococcus faecalis (GC 4554) (Enterococcus sp.): 4 to 8 µg/mL
MIC Enterococcus faecalis (GC 6189) (Enterococcus sp.): 4 µg/mL (≈ 2.77 µM)
MIC Enterococcus faecium (GC 2243) (Enterococcus sp.): 4 µg/mL (≈ 2.77 µM)
MIC Enterococcus faecium (GC 4556) (Enterococcus sp.): 4 µg/mL (≈ 2.77 µM)
MIC Enterococcus faecium (GC 4557) (Enterococcus sp.): 0.5 to 2 µg/mL
MIC Enterococcus faecalis (ATCC 29212) (Enterococcus sp.; strain ATCC 29212): 4 µg/mL (≈ 2.77 µM)
MIC Enterococcus faecium (GC 2243) (Enterococcus sp.; strain GC 2243): 4 µg/mL (≈ 2.77 µM)
MIC Enterococcus faecalis (GC 4552) (Enterococcus sp.; strain GC 4552): 4 µg/mL (≈ 2.77 µM)
MIC Enterococcus faecalis (GC 4553) (Enterococcus sp.; strain GC 4553): 4 µg/mL (≈ 2.77 µM)
MIC Enterococcus faecalis (GC 4554) (Enterococcus sp.; strain GC 4554): 4 to 8 µg/mL
MIC Enterococcus faecium (GC 4556) (Enterococcus sp.; strain GC 4556): 4 µg/mL (≈ 2.77 µM)
MIC Enterococcus faecium (GC 4557) (Enterococcus sp.; strain GC 4557): 0.5 to 2 µg/mL
MIC Enterococcus avium (GC 4558) (Enterococcus sp.; strain GC 4558): 4 µg/mL (≈ 2.77 µM)
MIC Enterococcus faecalis (GC 6189) (Enterococcus sp.; strain GC 6189): 4 µg/mL (≈ 2.77 µM)
MIC Enterococcus faecalis (GC 2242) (Enterococcus sp.; inoculum 5×10^5 CFU/mL, strain GC 2242): 4 µg/mL (≈ 2.77 µM)
MIC Enterococcus faecalis (GC 2691) (Enterococcus sp.; inoculum 5×10^5 CFU/mL, strain GC 2691): 4 µg/mL (≈ 2.77 µM)
MIC Enterococcus faecalis (GC 3059) (Enterococcus sp.; inoculum 5×10^5 CFU/mL, strain GC 3059): 4 to 8 µg/mL
MIC Coagulase Negative Staphylococcus (GC 4547) (Staphylococcus sp.): 0.5 to 1 µg/mL
MIC Coagulase Negative Staphylococcus (GC 4548) (Staphylococcus sp.): 0.25 to 0.5 µg/mL
MIC Coagulase Negative Staphylococcus (GC 4549) (Staphylococcus sp.): 0.25 to 0.5 µg/mL
MIC Coagulase Negative Staphylococcus (GC 4551) (Staphylococcus sp.): 0.5 to 1 µg/mL
MIC Coagulase Negative Staphylococcus (GC 6257) (Staphylococcus sp.): 0.25 to 0.5 µg/mL
MIC Staphylococcus aureus (ATCC 29213) (Staphylococcus sp.): 0.5 to 1 µg/mL
MIC Staphylococcus aureus (GC 1131) (Staphylococcus sp.): 1 to 2 µg/mL
MIC Staphylococcus aureus (GC 3051) (Staphylococcus sp.): 0.5 to 2 µg/mL
MIC Staphylococcus aureus (GC 3053) (Staphylococcus sp.): 1 to 2 µg/mL
MIC Staphylococcus aureus (GC 4541) (Staphylococcus sp.): 0.5 to 1 µg/mL
MIC Staphylococcus aureus (GC 4542) (Staphylococcus sp.): 0.5 to 2 µg/mL
MIC Staphylococcus aureus (GC 4544) (Staphylococcus sp.): 1 to 2 µg/mL
MIC Staphylococcus aureus (GC 4545) (Staphylococcus sp.): 1 to 2 µg/mL
MIC Staphylococcus aureus-SMITH (GC 4543) (Staphylococcus sp.): 0.5 to 1 µg/mL
MIC Staphylococcus haemolyticus (GC 4546) (Staphylococcus sp.): 0.25 to 0.5 µg/mL
MIC Staphylococcus aureus (ATCC 29213) (Staphylococcus sp.; strain ATCC 29213): 0.5 to 1 µg/mL
MIC Staphylococcus aureus (GC 1131) (Staphylococcus sp.; strain GC 1131): 1 to 2 µg/mL
MIC Staphylococcus aureus (GC 3051) (Staphylococcus sp.; strain GC 3051): 0.5 to 2 µg/mL
MIC Staphylococcus aureus (GC 3053) (Staphylococcus sp.; strain GC 3053): 1 to 2 µg/mL
MIC Staphylococcus aureus (GC 4541) (Staphylococcus sp.; strain GC 4541): 0.5 to 1 µg/mL
MIC Staphylococcus aureus (GC 4542) (Staphylococcus sp.; strain GC 4542): 0.5 to 2 µg/mL
MIC Staphylococcus aureus-SMITH (GC 4543) (Staphylococcus sp.; strain GC 4543): 0.5 to 1 µg/mL
MIC Staphylococcus aureus (GC 4544) (Staphylococcus sp.; strain GC 4544): 1 to 2 µg/mL
MIC Staphylococcus aureus (GC 4545) (Staphylococcus sp.; strain GC 4545): 1 to 2 µg/mL
MIC Staphylococcus haemolyticus (GC 4546) (Staphylococcus sp.; strain GC 4546): 0.25 to 0.5 µg/mL
MIC Coagulase Negative Staphylococcus (GC 4547) (Staphylococcus sp.; strain GC 4547): 0.5 to 1 µg/mL
MIC Coagulase Negative Staphylococcus (GC 4548) (Staphylococcus sp.; strain GC 4548): 0.25 to 0.5 µg/mL
MIC Coagulase Negative Staphylococcus (GC 4549) (Staphylococcus sp.; strain GC 4549): 0.25 to 0.5 µg/mL
MIC Coagulase Negative Staphylococcus (GC 4551) (Staphylococcus sp.; strain GC 4551): 0.5 to 1 µg/mL
MIC Coagulase Negative Staphylococcus (GC 6257) (Staphylococcus sp.; strain GC 6257): 0.25 to 0.5 µg/mL
median effective dose (ED50), Staphylococcus aureus-SMITH (GC 4543) [1]: 0.59 mg/kg
